Results taken from PubChem BioAssay (NCI).
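Briefly, cells in 96-well plates were exposed to five compound concentrations for 48 h, and endpoints were estimated by linear interpolation. Definition used: TGI = concentration required for complete inhibition of growth.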

Tests used:
Experiment in all cases: NCI tumour cell line growth inhibition, 48 h
[1] = test system: 786-0 renal
[2] = test system: A498 renal
[3] = test system: A549 NSCLC
[4] = test system: ACHN renal
[5] = test system: CAKI-1 renal
[6] = test system: CCRF-CEM leukemia
[7] = test system: COLO 205 colon
[8] = test system: DU-145 prostate
[9] = test system: EKVX NSCLC
[10] = test system: HCC-2998 colon
[11] = test system: HCT-116 colon
[12] = test system: HCT-15 colon
[13] = test system: HL-60(TB) leukemia
[14] = test system: HOP-62 NSCLC
[15] = test system: HOP-92 NSCLC
[16] = test system: HS 578T breast
[17] = test system: HT29 colon
[18] = test system: IGROV1 ovarian
[19] = test system: K-562 leukemia
[20] = test system: KM12 colon
[21] = test system: LOX IMVI melanoma
[22] = test system: M14 melanoma
[23] = test system: MALME-3M melanoma
[24] = test system: MCF7 breast
[25] = test system: MDA-MB-231 breast
[26] = test system: MDA-MB-435
[27] = test system: MDA-N
[28] = test system: MOLT-4 leukemia
[29] = test system: NCI-H226 lung
[30] = test system: NCI-H23 lung
[31] = test system: NCI-H460 lung
[32] = test system: NCI-H522 lung
[33] = test system: NCI/ADR-RES ovarian
[34] = test system: OVCAR-3 ovarian
[35] = test system: OVCAR-4 ovarian
[36] = test system: OVCAR-5 ovarian
[37] = test system: OVCAR-8 ovarian
[38] = test system: PC-3 prostate
[39] = test system: RPMI-8226 leukemia
[40] = test system: RXF 393 renal
[41] = test system: SF-268 CNS
[42] = test system: SF-295 CNS
[43] = test system: SF-539 CNS
[44] = test system: SK-MEL-2 melanoma
[45] = test system: SK-MEL-28 melanoma
[46] = test system: SK-MEL-5 melanoma
[47] = test system: SK-OV-3 ovarian
[48] = test system: SN12C renal
[49] = test system: SNB-19 CNS
[50] = test system: SNB-75 CNS
[51] = test system: SR leukemia
[52] = test system: SW-620 colon
[53] = test system: T-47D breast
[54] = test system: TK-10 renal
[55] = test system: U251 CNS
[56] = test system: UACC-257 melanoma
[57] = test system: UACC-62 melanoma
[58] = test system: UO-31 renal

## CC1(C#N)CC(C)(C)C(/C=C2/CC(C)(C)C(/C=C3/OC(=N)CC3(C)C)=N2)=N1 (stereo not drawn)
[1]
  TGI: 62.6 µM
[2]
  TGI: 37.8 µM
[3]
  TGI: > 100 µM
[4]
  TGI: 58.9 µM
[5]
  TGI: > 100 µM
[6]
  TGI: > 100 µM
[7]
  TGI: 34.4 µM
[8]
  TGI: > 100 µM
[9]
  TGI: 51.6 µM
[10]
  TGI: 93.3 µM
[11]
  TGI: > 100 µM
[12]
  TGI: 44.1 µM
[13]
  TGI: 78.1 µM
[14]
  TGI: 56.6 µM
[15]
  TGI: 39.9 µM
[16]
  TGI: 58.9 µM
[17]
  TGI: > 100 µM
[18]
  TGI: 46.3 µM
[19]
  TGI: 78.1 µM
[20]
  TGI: 56.2 µM
[21]
  TGI: > 100 µM
[22]
  TGI: 85.8 µM
[23]
  TGI: 20 µM
[24]
  TGI: 26.3 µM
[25]
  TGI: > 100 µM
[26]
  TGI: 63.9 µM
[27]
  TGI: 92.1 µM
[28]
  TGI: 89.7 µM
[29]
  TGI: > 100 µM
[30]
  TGI: 60.6 µM
[31]
  TGI: 39.9 µM
[32]
  TGI: 34 µM
[33]
  TGI: 54 µM
[34]
  TGI: 45.8 µM
[35]
  TGI: 43.7 µM
[36]
  TGI: > 100 µM
[37]
  TGI: 74 µM
[38]
  TGI: > 100 µM
[39]
  TGI: 64 µM
[40]
  TGI: 44.5 µM
[41]
  TGI: > 100 µM
[42]
  TGI: 60.9 µM
[43]
  TGI: > 100 µM
[44]
  TGI: > 100 µM
[45]
  TGI: > 100 µM
[46]
  TGI: 32.4 µM
[47]
  TGI: 61 µM
[48]
  TGI: 95.9 µM
[49]
  TGI: > 100 µM
[50]
  TGI: > 100 µM
[51]
  TGI: > 100 µM
[52]
  TGI: > 100 µM
[53]
  TGI: 61.8 µM
[54]
  TGI: > 100 µM
[55]
  TGI: > 100 µM
[56]
  TGI: 48.7 µM
[57]
  TGI: 66 µM

## N#Cc1sc2nc(/C=C3/C=CC=CC3=O)c(O)n2c1N
[1]
  TGI: > 100 µM
[2]
  TGI: > 100 µM
[3]
  TGI: > 100 µM
[4]
  TGI: > 100 µM
[5]
  TGI: > 100 µM
[6]
  TGI: 74.9 µM
[7]
  TGI: > 100 µM
[8]
  TGI: > 100 µM
[9]
  TGI: > 100 µM
[10]
  TGI: > 100 µM
[11]
  TGI: > 100 µM
[12]
  TGI: > 100 µM
[13]
  TGI: 44.3 µM
[14]
  TGI: > 100 µM
[15]
  TGI: > 100 µM
[16]
  TGI: > 100 µM
[17]
  TGI: > 100 µM
[18]
  TGI: > 100 µM
[19]
  TGI: 55.9 µM
[20]
  TGI: > 100 µM
[21]
  TGI: > 100 µM
[22]
  TGI: > 100 µM
[23]
  TGI: > 100 µM
[24]
  TGI: > 100 µM
[25]
  TGI: > 100 µM
[26]
  TGI: > 100 µM
[27]
  TGI: > 100 µM
[28]
  TGI: 59.8 µM
[29]
  TGI: > 100 µM
[30]
  TGI: > 100 µM
[32]
  TGI: > 100 µM
[33]
  TGI: > 100 µM
[34]
  TGI: > 100 µM
[35]
  TGI: > 100 µM
[36]
  TGI: > 100 µM
[37]
  TGI: > 100 µM
[38]
  TGI: > 100 µM
[39]
  TGI: 81.2 µM
[40]
  TGI: > 100 µM
[41]
  TGI: > 100 µM
[42]
  TGI: > 100 µM
[43]
  TGI: 60 µM
[44]
  TGI: > 100 µM
[45]
  TGI: > 100 µM
[46]
  TGI: > 100 µM
[47]
  TGI: > 100 µM
[48]
  TGI: > 100 µM
[49]
  TGI: > 100 µM
[50]
  TGI: > 100 µM
[51]
  TGI: 60.3 µM
[52]
  TGI: > 100 µM
[53]
  TGI: > 100 µM
[54]
  TGI: > 100 µM
[55]
  TGI: > 100 µM
[56]
  TGI: > 100 µM
[58]
  TGI: > 100 µM
